In patent US20240090503A1, “FUNGICIDAL OXADIAZOLES AND THEIR MIXTURES” (FMC CORPORATION, priority 2020, published 2024):
Marks after values point to notes of the source that are not given here.

Experiments:
Type in all cases: in vivo
[1] = test system: Zymoseptoria tritici (the causal agent of wheat leaf blotch); assay: Test B: preventive spray on wheat seedlings, wheat leaf blotch, visual disease rating; details: wheat seedlings
How it was run: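 This is a preventive test: spray application preceded Zymoseptoria tritici spore inoculation by one day. Test suspensions were in acetone/water with 250 ppm PEG400 surfactant, at the listed ppm rate. After 48 h saturated humidity at 24° C and 17 days at 20° C, visual ratings scored control from 0 to 100%.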

[2] = test system: Puccinia recondita f. sp. tritici (the causal agent of wheat leaf rust); assay: Test C: preventive spray on wheat seedlings, wheat leaf rust, visual disease rating; details: wheat seedlings
How it was run: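 Wheat seedlings sprayed to run-off with compound in acetone/water (50/50) with 250 ppm PEG400, then inoculated with spores the following day. After 24 h saturated humidity at 20° C. and 6 days in growth chamber at 20° C., disease rated visually as % control relative to untreated controls.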

[3] = test system: Phakopsora pachyrhizi (the causal agent of Asian soybean rust); assay: Test A: preventive spray on soybean seedlings, Asian soybean rust, visual disease rating; details: soybean seedlings
How it was run: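 Compound in acetone/water (50/50) with 250 ppm PEG400 sprayed to run-off on soybean seedlings; inoculated next day with Phakopsora pachyrhizi spores. Held 24 h at 22° C in saturated atmosphere, then 8 days in a 22° C growth chamber before visual rating as % disease control relative to controls.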

[4] = test suspension 10 ppm, 100 = 100% disease control, 0 = no control
[5] = 250 ppm test suspension, 100 = 100% disease control
[6] = 10 ppm test suspension, 100 = 100% disease control, 0 = no control
[7] = 50 ppm test suspension, 100 = 100% disease control, 0 = no control

| SMILES | Test B disease control rating ([1]; test suspension 250 ppm) | Test B disease control rating [1, 5] | Test C disease control rating [2, 6] [%] | Test A disease control rating [3, 6] [%] | further results |
| --- | --- | --- | --- | --- | --- |
| CCOC(=O)c1cnn(CCn2nc(-c3noc(C(F)(F)F)n3)ccc2=O)c1 [compound 347] | 0* % | – | – | – | Test C disease control rating ([2]; test suspension 10 ppm): 0%; Test A disease control rating [3, 4]: 0% |
| CCNC(=O)c1ccc(COc2ccc(-c3noc(C(F)(F)F)n3)cc2)s1 [compound 352] | 0* % | – | – | – | Test C disease control rating ([2]; test suspension 10 ppm): 68%; Test A disease control rating [3, 4]: 87% |
| COC(=O)c1ccc(COc2ccc(-c3noc(C(F)(F)F)n3)cc2)cc1 [compound 354] | 20* % | – | – | – | Test C disease control rating ([2]; test suspension 10 ppm): 0%; Test A disease control rating [3, 4]: 0% |
| FC(F)(F)c1nc(-c2ccc(OCc3nc4ccccc4o3)cc2)no1 [compound 355] | 4* % | – | – | – | Test C disease control rating ([2]; test suspension 10 ppm): 0%; Test A disease control rating [3, 4]: 0% |
| CN(C)N1C(=O)C(Cl)=C(Oc2ccc(-c3noc(C(F)(F)F)n3)cc2)C1=O [compound 356] | 96* % | – | – | – | Test C disease control rating ([2]; test suspension 250 ppm): 94%; Test A disease control rating ([3]; test suspension 250 ppm): 99% |
| CC(C)(C)NN1C(=O)C(Cl)=C(Oc2ccc(-c3noc(C(F)(F)F)n3)cc2)C1=O [compound 357] | 99* % | – | – | – | Test C disease control rating ([2]; test suspension 250 ppm): 91%; Test A disease control rating ([3]; test suspension 250 ppm): 98% |
| CCOC(=O)c1cnn(CCCn2nc(-c3noc(C(F)(F)F)n3)ccc2=O)c1 [compound 358] | 0* % | – | – | – | Test C disease control rating ([2]; test suspension 10 ppm): 0%; Test A disease control rating [3, 4]: 0% |
| N#Cc1cnn(CCCc2ccc(-c3noc(C(F)(F)F)n3)cc2)c1 [compound 359] | 99* % | – | – | – | Test C disease control rating ([2]; test suspension 10 ppm): 95%; Test A disease control rating [3, 4]: 100% |
| CCCOC(=O)c1cnn(CCCc2ccc(-c3noc(C(F)(F)F)n3)cc2)c1 [compound 365] | 80* % | – | – | – | Test C disease control rating ([2]; test suspension 50 ppm): 99%; Test A disease control rating ([3]; test suspension 50 ppm): 100% |
| N#Cc1csc(Cc2ccc(-c3noc(C(F)(F)F)n3)cc2)n1 [compound 370] | 98* % | – | – | – | Test C disease control rating ([2]; test suspension 250 ppm): 100%; Test A disease control rating ([3]; test suspension 250 ppm): 100% |
| O=C1CCCN1Cc1ccc(-c2noc(C(F)(F)F)n2)cc1 [compound 371] | 95* % | – | – | – | Test C disease control rating ([2]; test suspension 250 ppm): 100%; Test A disease control rating ([3]; test suspension 250 ppm): 100% |
| O=C1COCCN1Cc1ccc(-c2noc(C(F)(F)F)n2)cc1 [compound 372] | 99* % | – | – | – | Test C disease control rating ([2]; test suspension 250 ppm): 100%; Test A disease control rating ([3]; test suspension 250 ppm): 100% |
| C=CCOC(=O)c1cnn(CCCc2ccc(-c3noc(C(F)(F)F)n3)cc2)c1 [compound 373] | 99* % | – | – | – | Test C disease control rating ([2]; test suspension 250 ppm): 100%; Test A disease control rating ([3]; test suspension 250 ppm): 100% |
| N#CCNC(=O)c1csc(Cc2ccc(-c3noc(C(F)(F)F)n3)cc2)n1 [compound 393] | – | 94* % | 100 | 100 | – |
| O=C(NC1CCC(F)(F)CC1)c1coc(Cc2ccc(-c3noc(C(F)(F)F)n3)cc2)n1 [compound 395] | – | 0* % | 97 | 95 | – |
| O=C(NCCn1cccn1)c1csc(Cc2ccc(-c3noc(C(F)(F)F)n3)cc2)n1 [compound 396] | – | 28* % | 100 | 100 | – |
| O=C(NCCC(F)(F)F)c1csc(Cc2ccc(-c3noc(C(F)(F)F)n3)cc2)n1 [compound 397] | – | 82* % | 98 | 100 | – |
| O=C(NCCCC(F)(F)F)c1coc(Cc2ccc(-c3noc(C(F)(F)F)n3)cc2)n1 [compound 398] | – | 80* % | 97 | 100 | – |

| SMILES | Test B disease control rating ([1]; test suspension 250 ppm) | Test B disease control rating [1, 5] | Test C disease control rating [2, 6] [%] | Test A disease control rating [3, 6] [%] | further results |
| --- | --- | --- | --- | --- | --- |
| O=C(NCC=C(Cl)Cl)c1coc(Cc2ccc(-c3noc(C(F)(F)F)n3)cc2)n1 [compound 399] | – | 10* % | 99 | 100 | – |
| CCOC(=O)c1csc(COc2ccc(-c3noc(C(F)(F)F)n3)cc2)n1 [compound 404] | – | 0* % | 68 | 0 | – |
| O=C(c1ccc(Cc2ccc(-c3noc(C(F)(F)F)n3)cc2)o1)C(F)(F)F [compound 450] | – | 41* % | 0 | 94 | – |
| FC(F)(F)c1nc(-c2ccc(Cc3ccccc3)cc2)no1 [compound 451] | – | 8* % | 0 | 99 | – |
| COC(=O)c1cnc(Oc2ccc(-c3noc(C(F)(F)F)n3)cc2)s1 [compound 452] | – | 59* % | 0 | 81 | – |
| CCOC(=O)c1ccc(Cc2ccc(-c3noc(C(F)(F)F)n3)cc2)cc1 [compound 453] | – | 50* % | 0 | 92 | – |
| COC(=O)c1coc(Cc2ccc(-c3noc(C(F)(F)F)n3)cc2)c1 [compound 456] | – | 65* % | 68 | 100 | – |
| CCOC(=O)c1cnn(CN2CCC(c3noc(C(F)(F)F)n3)CC2)c1 [compound 458] | – | 0* % | – | – | Test C disease control rating [2, 7]: 0%; Test A disease control rating [3, 7]: 0% |
| CCOC(=O)c1cnn(CCN2CCC(c3noc(C(F)(F)F)n3)CC2)c1 [compound 459] | – | 0* % | – | – | Test C disease control rating [2, 7]: 0%; Test A disease control rating [3, 7]: 0% |
| COCCNC(=O)c1coc(COc2ccc(-c3noc(C(F)(F)F)n3)cc2)n1 [compound 464] | – | 94* % | 23 | 79 | – |
| O=C(NCC(F)(F)F)c1coc(COc2ccc(-c3noc(C(F)(F)F)n3)cc2)n1 [compound 465] | – | 0* % | 80 | 100 | – |
| O=C(NCCn1cccn1)c1coc(COc2ccc(-c3noc(C(F)(F)F)n3)cc2)n1 [compound 466] | – | 3* % | 55 | 100 | – |
| O=C(NCCC(F)(F)F)c1coc(COc2ccc(-c3noc(C(F)(F)F)n3)cc2)n1 [compound 467] | – | 6* % | 68 | 97 | – |
| N#CCNC(=O)c1coc(COc2ccc(-c3noc(C(F)(F)F)n3)cc2)n1 [compound 468] | – | 22* % | 0 | 84 | – |
| COCCNC(=O)c1csc(COc2ccc(-c3noc(C(F)(F)F)n3)cc2)n1 [compound 469] | – | 65* % | 86 | 96 | – |
| O=C(NCC(F)(F)F)c1csc(COc2ccc(-c3noc(C(F)(F)F)n3)cc2)n1 [compound 470] | – | 0* % | 94 | 100 | – |
| O=C(NCCn1cccn1)c1csc(COc2ccc(-c3noc(C(F)(F)F)n3)cc2)n1 [compound 471] | – | 15* % | 80 | 77 | – |
| O=C(NCCC(F)(F)F)c1csc(COc2ccc(-c3noc(C(F)(F)F)n3)cc2)n1 [compound 472] | – | 22* % | 0 | 77 | – |
